Consider 14 compounds from patent US20240139326A1, “METHACRYLAMIDES PROTEIN BINDERS AND USES THEREOF” (YEDA RESEARCH AND DEVELOPMENT CO. LTD., priority 2020, published 2024).

Like-named read-outs stand apart in the source and are kept apart here. Where only a bound is given, the exact number is not on record here.

Data set [1] deals with SARS-CoV-2 papain like protease (PL^pro) (Severe acute respiratory syndrome coronavirus 2 (2019-nCoV) (SARS-CoV-2), UniProt P0DTD1). In words: Labeling of PLpro (LC/MS). Format: binding. As to conditions: 2 μM protein, 16h, pH 8.
For another data set, the target named is wild-type BTK (Homo sapiens (Human), UniProt Q06187). In words: In vitro kinase activity assay for BTK (Nanosyn). It is filed as biochemical.
Sequence of wild-type BTK (Q06187 whole entry, the tested form may be a part): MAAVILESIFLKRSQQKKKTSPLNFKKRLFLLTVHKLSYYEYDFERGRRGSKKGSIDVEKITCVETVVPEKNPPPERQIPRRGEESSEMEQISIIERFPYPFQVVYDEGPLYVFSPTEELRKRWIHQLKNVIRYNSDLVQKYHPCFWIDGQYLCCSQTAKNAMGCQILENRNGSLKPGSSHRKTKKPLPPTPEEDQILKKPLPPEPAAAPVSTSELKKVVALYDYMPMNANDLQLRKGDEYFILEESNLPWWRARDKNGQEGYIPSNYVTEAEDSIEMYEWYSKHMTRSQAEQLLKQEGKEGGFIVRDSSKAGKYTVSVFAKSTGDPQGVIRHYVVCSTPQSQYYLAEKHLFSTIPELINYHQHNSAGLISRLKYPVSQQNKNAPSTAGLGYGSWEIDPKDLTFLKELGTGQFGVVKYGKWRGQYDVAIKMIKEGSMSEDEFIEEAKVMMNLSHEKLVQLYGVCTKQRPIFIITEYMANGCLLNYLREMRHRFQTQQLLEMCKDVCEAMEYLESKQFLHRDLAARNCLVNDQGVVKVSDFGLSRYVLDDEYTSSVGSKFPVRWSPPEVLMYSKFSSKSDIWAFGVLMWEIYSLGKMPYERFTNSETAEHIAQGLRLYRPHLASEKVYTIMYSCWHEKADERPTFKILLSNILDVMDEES
Data set [2] deals with T1, BTK kinase domain (Homo sapiens (Human), UniProt Q06187). In words: Kinetic labeling experiments of Ibrutinib derivatives with BTK (intact protein LC/MS). As to conditions: for BTK Substitution/Addition: mechanism of BTK labeling; for labeling of BTK through the substitution mechanism: within 30 minutes.
T1 sequence (Q06187 402-655): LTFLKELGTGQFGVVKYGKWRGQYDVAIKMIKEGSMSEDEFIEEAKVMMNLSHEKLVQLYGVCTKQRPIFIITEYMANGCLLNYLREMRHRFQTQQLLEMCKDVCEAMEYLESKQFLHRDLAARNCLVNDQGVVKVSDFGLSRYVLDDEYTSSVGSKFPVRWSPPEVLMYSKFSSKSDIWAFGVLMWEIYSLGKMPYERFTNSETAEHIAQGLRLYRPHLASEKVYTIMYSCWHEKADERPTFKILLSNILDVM
Procedure: (§2) The reaction mixtures, at room temperature for various times, were injected into the LC/MS. For data analysis, the raw spectra were deconvoluted using a 20000:40000 Da window and 1 Da resolution. The signal from masses 20000:30000 and 33000:40000 (which contained no peaks) was averaged and subtracted from the whole signal.
The test system of the next data set is Mino cells. In words: In-gel fluorescence proteomic reactivity of alkyne probes. As to conditions: Mino cells treated 2 h, clicked with TAMRA-azide. It is filed as cell-based. The protocol:
The samples were incubated at 25 degrees for 2 hours.
Mino cells were treated for two hours with either DMSO, IA-alkyne, or 2a-c. The cells were lysed, labeled the alkynes via copper-catalyzed “click chemistry” with TAMRA (Tetramethylrhodamine)-azide, and imaged the adducts via in-gel fluorescence (FIG. 8B). […] This may be the result of cellular esterases that hydrolyze the ester, leaving an unreactive substituted acrylamide^26. All of the acrylamides were markedly less reactive than IA-alkyne.

Data set [3] has as its target T2, BTK (Homo sapiens (Human), UniProt Q06187). In words: Fluorescence intensity measurement of CoLDR turn-on probe with BTK. It is filed as binding. The following applies: 2 μM probe, 2 μM BTK. On the procedure: (§1) Each condition was in triplicates in 20 mM Tris pH 8 50 mM NaCl for BTK and K-RAS^G12c, in 50 mM Tris pH 8.0, 100 mM NaCl for EGFR. fluorescent measurements were taken every 2 minutes for 2 hours for BTK and EGFR and every 10 minutes for 15 hours for K-RAS^G12c. […] K-Ras^G12C was expressed and purified as previously described^66, EGFR kinase domain was a generous gift from Prof. Michael Eck.
The fact that a specific leaving group is released as a function of selective binding of a target protein can be used to functionalize irreversible inhibitors, for example as turn-on fluorescent probes. To assess the applicability and generality of this approach three therapeutic targets were chosen for which acrylamide inhibitors are available: BTK, EGFR, and K-RAS^G12C as model systems. […] The rate of the reaction was […] by using 20:1 equivalents of protein:probe (FIG. 12). […] The release can also be inhibited by pre-incubation of BTK with Iodoacetamide alkyne (IAA; FIG. 13B).

The target of a further data set is BSA (Bos taurus (Bovine), UniProt P02769). In words: Turn-on fluorescence selectivity control with BSA. It is filed as binding. The following applies: 10 μM BSA with 2 μM 3j.
Sequence of BSA (P02769 25-607 limits assumed): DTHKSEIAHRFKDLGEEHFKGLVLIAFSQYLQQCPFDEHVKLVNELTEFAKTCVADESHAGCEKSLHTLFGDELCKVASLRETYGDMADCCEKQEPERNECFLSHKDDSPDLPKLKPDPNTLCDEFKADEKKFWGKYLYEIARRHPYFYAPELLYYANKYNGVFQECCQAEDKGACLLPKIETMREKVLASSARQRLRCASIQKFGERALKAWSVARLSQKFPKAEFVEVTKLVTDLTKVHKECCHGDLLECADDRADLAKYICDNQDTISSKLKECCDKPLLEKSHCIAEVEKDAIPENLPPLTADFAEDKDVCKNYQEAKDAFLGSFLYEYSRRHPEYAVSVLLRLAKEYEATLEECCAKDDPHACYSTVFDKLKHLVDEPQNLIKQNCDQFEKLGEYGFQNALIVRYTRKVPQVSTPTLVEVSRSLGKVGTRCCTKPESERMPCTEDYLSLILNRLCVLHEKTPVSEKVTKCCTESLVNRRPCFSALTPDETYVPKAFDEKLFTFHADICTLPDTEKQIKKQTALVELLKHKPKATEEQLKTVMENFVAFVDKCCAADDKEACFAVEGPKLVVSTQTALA
Data set [4] addresses T2, BTK. Nature of the data set: Turn-on chemiluminescence of probe 3k with BTK. It is filed as binding. The protocol: Plate reader measurements were performed on Tecan Spark Control 10M fluorescent measurements using black 384 well plates with clear bottom.
Recently, adamantylidene-dioxetane based chemiluminescent turn-on probes for the sensing and imaging of enzymes, reactive oxygen species, and other analytes were reported^28-32 These probes, upon activation by analytes, release a phenolate-dioxetane intermediate which subsequently decomposes with the emission of a photon in the visible spectrum (FIG. 3). […] The chemiluminescence light emission profile of probe 3k (FIG. 15A, Example 1) upon activation with BTK (2 μM) was measured in the absence and presence of BTK (FIG. 15B). The kinetic profile in the presence of BTK was typical of a chemiluminescent probe with an initial signal was increased to a maximum within 20 minutes, followed by a slow decrease.

The target of data set [5] is T2, BTK. In words: Fluorescence intensity measurements of labeling probes with BTK. As to conditions: 4 μM competitor.
A further data set in a line: physchem. The following applies: 5 mM GSH in potassium phosphate buffer, pH 8.
In data set [6] the target is T1, BTK kinase domain. In words: Labeling experiments of Ibrutinib derivatives with BTK (ligand release, LC/MS). Format: binding. As to conditions: BTK 2 μM, 10 min, 25° C., pH 8.
Procedure: Binding experiments were performed in Tris 20 mM pH 8.0, 50 mM NaCl at room temperature. […] The reaction mixtures, at room temperature for various times, were injected into the LC/MS. For data analysis, the raw spectra were deconvoluted using a 20000:40000 Da window and 1 Da resolution. The labeling percentage for a compound was determined as the labeling of a specific compound (alone or together with other compounds) divided by the overall detected protein species.
To assess irreversible labeling and validate the proposed ligand release mechanism, the probes/compounds (2 μM) were incubated with recombinant BTK (2 μM) and monitored the reaction via intact protein liquid chromatography/mass spectrometry (LC/MS).
Data set [7] addresses T3, EGFR (Homo sapiens (Human), UniProt P00533). In words: Fluorescence intensity measurement of CoLDR turn-on probe with EGFR. The following applies: 2 μM each. It is filed as binding. The protocol: as §1
Similarly, 4b (FIG. 11B, Example 1; afatinib derivative functionalized with coumarin) and 5a (FIG. 11C, Example 1; AMG-510 derivative functionalized with coumarin) were treated with EGFR and K-RAS^G12c respectively and measured the released coumarin fluorescence (FIG. 11E, 11F).

In data set [8] the target is T3, EGFR. Nature of the data set: EGFR kinase activity assay. As to conditions: read-out: IC50 against EGFR. It is filed as biochemical.
Data set [9] addresses T1, BTK kinase domain.
Procedure: as §2

T2 sequence (Q06187 2-659 limits assumed): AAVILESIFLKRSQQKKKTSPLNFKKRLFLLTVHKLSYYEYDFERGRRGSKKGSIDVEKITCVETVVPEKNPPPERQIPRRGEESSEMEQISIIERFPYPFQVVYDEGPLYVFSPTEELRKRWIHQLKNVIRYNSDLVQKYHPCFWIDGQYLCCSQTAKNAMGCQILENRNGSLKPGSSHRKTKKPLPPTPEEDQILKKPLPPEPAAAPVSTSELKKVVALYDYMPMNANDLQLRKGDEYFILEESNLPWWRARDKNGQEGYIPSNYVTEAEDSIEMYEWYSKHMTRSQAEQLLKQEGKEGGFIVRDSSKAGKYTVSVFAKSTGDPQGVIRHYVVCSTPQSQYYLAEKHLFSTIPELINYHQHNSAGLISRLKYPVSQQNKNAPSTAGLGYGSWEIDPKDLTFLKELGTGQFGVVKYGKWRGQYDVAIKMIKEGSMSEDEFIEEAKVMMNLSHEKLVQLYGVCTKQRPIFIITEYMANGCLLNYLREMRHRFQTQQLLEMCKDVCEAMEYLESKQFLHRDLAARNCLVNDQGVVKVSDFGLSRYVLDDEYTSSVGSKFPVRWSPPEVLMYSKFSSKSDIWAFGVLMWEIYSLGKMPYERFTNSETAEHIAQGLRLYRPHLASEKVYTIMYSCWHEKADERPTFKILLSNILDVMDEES
T3 sequence (P00533 25-1210 limits assumed): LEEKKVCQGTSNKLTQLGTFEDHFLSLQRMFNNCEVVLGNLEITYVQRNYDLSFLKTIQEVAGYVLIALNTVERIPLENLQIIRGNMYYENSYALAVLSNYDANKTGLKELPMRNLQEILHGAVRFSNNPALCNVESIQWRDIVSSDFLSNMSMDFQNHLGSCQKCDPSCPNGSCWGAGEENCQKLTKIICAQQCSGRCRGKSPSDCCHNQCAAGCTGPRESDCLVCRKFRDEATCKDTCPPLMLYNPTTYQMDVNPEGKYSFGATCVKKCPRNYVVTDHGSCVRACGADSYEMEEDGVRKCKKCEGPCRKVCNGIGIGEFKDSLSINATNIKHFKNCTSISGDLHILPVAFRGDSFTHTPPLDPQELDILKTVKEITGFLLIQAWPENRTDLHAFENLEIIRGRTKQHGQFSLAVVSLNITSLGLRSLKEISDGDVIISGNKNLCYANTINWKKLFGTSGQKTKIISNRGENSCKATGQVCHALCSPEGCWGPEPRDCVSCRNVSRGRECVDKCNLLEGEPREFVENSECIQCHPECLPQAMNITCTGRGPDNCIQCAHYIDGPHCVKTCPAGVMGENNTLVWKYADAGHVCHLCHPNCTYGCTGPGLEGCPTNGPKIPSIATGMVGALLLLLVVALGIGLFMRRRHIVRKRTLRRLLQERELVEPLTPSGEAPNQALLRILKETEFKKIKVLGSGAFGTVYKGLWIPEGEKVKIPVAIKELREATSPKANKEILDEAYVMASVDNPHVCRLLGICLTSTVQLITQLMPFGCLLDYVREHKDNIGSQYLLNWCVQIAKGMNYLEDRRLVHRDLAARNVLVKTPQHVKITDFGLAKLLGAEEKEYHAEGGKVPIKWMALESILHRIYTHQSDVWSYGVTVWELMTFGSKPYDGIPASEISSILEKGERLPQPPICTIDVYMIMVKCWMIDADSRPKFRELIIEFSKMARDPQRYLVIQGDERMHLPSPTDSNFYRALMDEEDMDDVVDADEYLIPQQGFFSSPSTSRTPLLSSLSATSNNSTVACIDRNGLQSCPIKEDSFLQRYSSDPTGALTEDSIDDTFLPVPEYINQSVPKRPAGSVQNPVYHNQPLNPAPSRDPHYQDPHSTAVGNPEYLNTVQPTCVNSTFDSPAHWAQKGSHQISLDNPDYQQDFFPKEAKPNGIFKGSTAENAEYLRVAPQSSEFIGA
Procedure for wild-type BTK: The reaction was initiated by 2-fold dilution into a solution containing 5 μM ATP and substrate.

For the compound `C=C(COC(=O)c1cc(OC)c(OC)c(OC)c1)C(=O)OCC` [Compound 7t], the “single labeling of PL^pro” value in [1] is 100%.

In the case of `C=C(COC(C)=O)C(=O)N1CCC[C@@H](n2nc(-c3ccc(Oc4ccccc4)cc3)c3c(N)ncnc32)C1` [Compound 3g, (R)-2-(3-(4-amino-3-(4-phenoxyphenyl)-1H-pyrazolo[3,4-d]pyrimidin-1-yl)piperidine-1-carbonyl)allyl acetate], on wild-type BTK (0.6 nM BTK, 5 μM ATP), the IC50 amounted to 0.0001 µM. Also, the IC50 against wild-type BTK (unit μM) is < 100 µM. Further, on BTK kinase domain [2], the “BTK Substitution/Addition” value is “Substitution” and the “labeling of BTK through the substitution mechanism” value was found to be 100%.

For the compound `C#CCCNC(=O)C(=C)COc1ccc2ccc(=O)oc2c1` [Compound 2a, N-(but-3-yn-1-yl)-2-(((2-oxo-2H-chromen-7-yl)oxy)methyl)acrylamide], the “proteomic reactivity (in-gel fluorescence)” value in the data set on Mino cells is on record as “slightly higher reactivity than 2b”.

In the case of `C=C(COc1ccc2ccc(=O)oc2c1)C(=O)N1CCC[C@@H](n2nc(-c3ccc(Oc4ccccc4)cc3)c3c(N)ncnc32)C1` [Compound 3j, (R)-7-((2-(3-(4-amino-3-(4-phenoxyphenyl)-1H-pyrazolo[3,4-d]pyrimidin-1-yl)piperidine-1-carbonyl)allyl)oxy)-2H-chromen-2-one], at BTK [3], the “increase of fluorescence intensity at 435 nm upon addition of BTK” value is 30 fold and the “time to fluorescence saturation” value is ≤ 10 min. The “fluorescence on incubation with BSA” value at BSA is listed as “did not result in increased fluorescence”. Moreover, the “labeling of BTK through the substitution mechanism” value at BTK kinase domain [2] is given as 100%.

For the compound `Nc1ncnc2c1c(-c1ccc(Oc3ccccc3)cc1)nn2[C@@H]1CCCNC1` [Ibr-H, reference compound], on BTK [4] (2 μM, 0.5 h pre-incubation), the “3k luminescence after pre-incubation of BTK with competitor” value is listed as “significant decrease in the luminescence detected”. The “7m turn-on fluorescence after pre-incubation of BTK with competitor” value on BTK [5] is “eliminated the fluorescence”.

For `C=C(CN(C)c1ccccc1)C(=O)N1CCC[C@@H](n2nc(-c3ccc(Oc4ccccc4)cc3)c3c(N)ncnc32)C1` [Compound 3d, (R)-1-(3-(4-amino-3-(4-phenoxyphenyl)-1H-pyrazolo[3,4-d]pyrimidin-1-yl)piperidin-1-yl)-2-((methyl(phenyl)amino)methyl)prop-2-en-1-one], the half-maximal inhibitory concentration (IC50) against wild-type BTK (0.6 nM BTK, 5 μM ATP) worked out at 0.0056 µM. In addition, the “BHK t1/2” value on BTK kinase domain [2] (BTK labeling, 2 μM compound and 2 μM BTK at room temperature) amounted to 47 min. On BTK kinase domain [2], the “BTK Substitution/Addition” value was “Substitution” and the “labeling of BTK through the substitution mechanism” value turned out to be 100%.

Regarding `C=C(COC(=O)Oc1ccc([N+](=O)[O-])cc1)C(=O)NCc1ccccc1` [Compound 1j, 2-(benzylcarbamoyl)allyl (4-nitrophenyl) carbonate], the half-life at 100 μM in “physchem” was 54 min.

As for `C#CCCNC(=O)C(=C)CN1CCC(CNc2ncnc(N)c2-c2ccc(Oc3ccccc3)cc2)CC1` [Compound 7g], the “single labeling of BTK” value at BTK kinase domain [6] worked out at 100%.

For `C=C(COc1ccc2ccc(=O)oc2c1)C(=O)Nc1cc2c(Nc3ccc(F)c(Cl)c3)ncnc2cc1OC` [Compound 4b, N-(4-((3-chloro-4-fluorophenyl)amino)-7-methoxyquinazolin-6-yl)-2-(((2-oxo-2H-chromen-7-yl)oxy)methyl)acrylamide], the “released coumarin fluorescence with EGFR” value at EGFR [7] is “significant increase in fluorescence intensity”. Moreover, the IC50 at EGFR [8] was 3.3 nM.

As to `C=C(CN1CCCCC1)C(=O)N1CCC[C@@H](n2nc(-c3ccc(Oc4ccccc4)cc3)c3c(N)ncnc32)C1` [Compound 3c, (R)-1-(3-(4-amino-3-(4-phenoxyphenyl)-1H-pyrazolo[3,4-d]pyrimidin-1-yl)piperidin-1-yl)-2-(piperidin-1-ylmethyl)prop-2-en-1-one], the IC50 is 0.0001 µM at wild-type BTK (0.6 nM BTK, 5 μM ATP) and < 100 µM against wild-type BTK (unit μM). Further, the “BTK Substitution/Addition” value at BTK kinase domain [2] is on record as “exclusively through addition”.

On to `C#CCCNC(=O)C(=C)COC(=O)c1ccccc1` [Compound 2c, 2-(but-3-yn-1-ylcarbamoyl)allyl benzoate], for which the “proteomic reactivity (in-gel fluorescence)” value in the data set with Mino cells is “completely inactive”.

Consider `C=C(COc1c(Cl)cc(C2(OC)OOC23[C@H]2C[C@@H]4C[C@@H](C[C@H]3C4)C2)cc1/C=C/C(=O)OC)C(=O)N1CCC[C@@H](n2nc(-c3ccc(Oc4ccccc4)cc3)c3c(N)ncnc32)C1` (stereo partly drawn) [Compound 3k, Methyl (E)-3-(2-((2-((R)-3-(4-amino-3-(4-phenoxyphenyl)-1H-pyrazolo[3,4-d]pyrimidin-1-yl)piperidine-1-carbonyl)allyl)oxy)-3-chloro-5-((1r,3r,5R,7R)-4′-methoxyspiro[adamantane-2,3′-[1,2]dioxetan]-4′-yl)phenyl)acrylate], for which the “time to maximum chemiluminescence signal” value at BTK [4] (BTK 2 μM) was ≤ 20 min.

For the compound `C=C(C)C(=O)N1CCC[C@@H](n2nc(-c3ccc(Oc4ccccc4)cc3)c3c(N)ncnc32)C1` [Compound 3a, (R)-1-(3-(4-amino-3-(4-phenoxyphenyl)-1H-pyrazolo[3,4-d]pyrimidin-1-yl)piperidin-1-yl)-2-methylprop-2-en-1-one], the “BHK t1/2” value on BTK kinase domain [9] is given as >420 min.

`C=C(CNCc1ccccc1)C(=O)N1CCC[C@@H](n2nc(-c3ccc(Oc4ccccc4)cc3)c3c(N)ncnc32)C1` [Compound 3e, (R)-1-(3-(4-amino-3-(4-phenoxyphenyl)-1H-pyrazolo[3,4-d]pyrimidin-1-yl)piperidin-1-yl)-2-((benzylamino)methyl)prop-2-en-1-one]: the IC50 was 0.0001 µM at wild-type BTK (0.6 nM BTK, 5 μM ATP) and < 100 µM against wild-type BTK (unit μM). Besides, the “BHK t1/2” value on BTK kinase domain [9] (recombinant enzyme) was <5 min. Further, the “BTK Substitution/Addition” value on BTK kinase domain [2] was “exclusively through addition”. For the same compound, the “BTK labeling t1/2 faster than Ibrutinib” value at BTK kinase domain [2] (relative to Ibrutinib) is recorded as 50%.
